In ChEMBL document CHEMBL5346885, “"Hit" to lead optimization and chemoinformatic studies for a new series of Autotaxin inhibitors” (Eur J Med Chem, 2023):
In brackets after ≈: the same amount, converted by molar mass. Activity calls are given as the source filed them. The rule behind the calls is not given here.

Assays:
Autotaxin [1] = target: T1, Autotaxin (Homo sapiens, UniProt Q13822); test: Inhibition of human ATX using LPC as substrate preincubated with compound for 15 mins followed by substrate addition measured after 30 mins by Amplex Red reagent based fluorescence analysis
[2] = Kinetic solubility of compound in PBS at pH 7.4 by HPLC analysis
[3] = Kinetic solubility of compound in simulated gastric fluid at pH 1.7 by HPLC analysis
[4] = Kinetic solubility of compound in simulated intestinal fluid at pH 6.6 by HPLC analysis
A549 [5] = test: Antiproliferative activity against human A549 cells assessed as redcution in cell growth measured after 24 hrs by MTT assay; format: functional, cell-based; details: dose 0.5-50 µM
A549 [6] = test: Antitumor activity against human A549 cells assessed as redcution in cell viability measured after 24 hrs by MTT assay; format: functional, cell-based; details: dose 0.5-50 µM
Autotaxin [7] = target: T1, Autotaxin; test: Mixed type inhibition of human ATX assessed as inhibition constant using LPC as substrate by Lineweaver-Burk plot analysis
A549 [8] = test: Inhibition of cell migration in human A549 cells at 5 uM incubated for 24 hrs by crystal violet staining based transwell assay; format: functional
[9] = Cytotoxicity against wild type Fibroblast (unknown origin) assessed as redcution in cell growth measured after 48 hrs by crystal violet staining based analysis; details: wild type fibroblasts
Autotaxin [10] = target: Autotaxin (Mus musculus, UniProt Q9R1E6); test: Inhibition of mouse ATX using LPC as substrate preincubated with compound for 15 mins followed by substrate addition measured after 30 mins by Amplex Red reagent based fluorescence analysis
[11] = target: 3',5'-cyclic phosphodiesterase; test: Inhibition of PDE (unknown origin); format: protein assay, Homo sapiens
[12] = test system: CO[C@](C(=O)Nc1c2c(nn1-c1ccc(Br)cc1)CSC2)(c1ccccc1)C(F)(F)F; test: (§1) Mixed type inhibition of human ATX assessed as km using LPC as substrate by Lineweaver-Burk plot analysis
[13] = test system: O=C(Nc1c2c(nn1-c1ccc(Br)cc1)CSC2)c1cc(Cl)cc(Cl)c1; test: as §1

Row | Compound | IC50 (Autotaxin [1]) [µM] | IC50 (Autotaxin [10]) [µM] | further results
1 | O=C(Nc1c2c(nn1-c1ccc(Br)cc1)COC2)c1cc(Cl)cc(Cl)c1 | > 100 | – | –
2 | CCc1nc2c(C)cc(N3CCN(CC(=O)N4CC(O)C4)CC3)cn2c1N(C)c1nc(-c2ccc(F)cc2)c(C#N)s1 [ZIRITAXESTAT] | – | – | solubility kinetic [2]: 96.9 µM (≈ 57 µg/mL); solubility kinetic [3]: 200 µM (≈ 118 µg/mL); solubility kinetic [4]: 97 µM (≈ 57.1 µg/mL)
3 | O=C(Nc1c2c(nn1-c1ccc(Br)cc1)CSC2)c1cc(F)cc(C(F)(F)F)c1 | 11.2 | – | –
4 | O=C(Cc1ccc(F)cc1)Nc1c2c(nn1-c1ccncc1)CSC2 | > 50 | – | –
5 | CO[C@](C(=O)Nc1c2c(nn1-c1ccc(Br)cc1)CSC2)(c1ccccc1)C(F)(F)F | 2 | – | Activity (A549 [5]): Dose-Dependent Effect; solubility kinetic [2]: 1.26 µM (≈ 0.646 µg/mL); Activity (A549 [6]): Dose-Dependent Effect; Ki (Autotaxin [7]): 6.83 µM; inhibition (A549 [8]): Active; CC50 at 48 h [9]: > 100 µM; solubility kinetic [3]: 16.7 µM (≈ 8.58 µg/mL); solubility kinetic [4]: 2.55 µM (≈ 1.31 µg/mL)
6 | O=C(Nc1c2c(nn1-c1ccc(OC(F)(F)F)cc1)CSC2)c1cccc2ccccc12 | – | 22.1 | –
7 | O=C(Nc1c2c(nn1-c1ccc(Cl)c(Cl)c1)CSC2)c1cccc2ccccc12 | – | 40 | –
8 | O=C(Nc1c2c(nn1-c1ccc(F)c(Cl)c1)CSC2)c1cccc2ccccc12 | – | 40.8 | –
9 | O=C(Nc1c2c(nn1-c1ccc(Br)cc1)CS(=O)(=O)C2)c1cccc2ccccc12 | > 100 | – | –
10 | O=C(Nc1c2c(nn1-c1cc(F)cc(F)c1)CSC2)c1cccc2ccccc12 | – | 53.7 | –
11 | O=C(Nc1c2c(nn1-c1ccc(Br)cc1)CSC2)c1ccc2ccccc2c1 | 12.1 | – | –
12 | O=C(Nc1c2c(nn1-c1ccc(Br)cc1)CSC2)c1cccc2ccccc12 | 4.6 | 5.3 | –
13 | O=C(Nc1c2c(nn1-c1ccc(Br)cc1)CSC2)c1cc(Cl)cc(Cl)c1 | 6.7 | 1.8 | Activity (A549 [5]): Dose-Dependent Effect; Activity (A549 [6]): Dose-Dependent Effect; Ki (Autotaxin [7]): 6.26 µM; inhibition (A549 [8]): Active; CC50 at 48 h [9]: > 100 µM; solubility kinetic [3]: 5.02 µM (≈ 2.36 µg/mL); solubility kinetic [4]: 4.18 µM (≈ 1.96 µg/mL)
14 | Cc1ccc(-n2nc3c(c2NC(=O)c2cccc4ccccc24)CSC3)cc1Cl | – | 80 | –
15 | O=C(Nc1c2c(nn1-c1ccc([N+](=O)[O-])cc1)CSC2)c1cccc2ccccc12 | 16 | 38.4 | IC50 [11]: 73 µM; CC50 at 48 h [9]: > 100 µM; solubility kinetic [3]: 2.73 µM (≈ 1.14 µg/mL)
16 | O=C(Nc1c2c(nn1-c1ccc(F)c(F)c1)CSC2)c1cccc2ccccc12 | – | 63 | –
17 | O=C(Nc1c2c(nn1-c1ccncc1)CSC2)c1cccc2ccccc12 | 5.3 | 2.7 | –
18 | O=C(Nc1c2c(nn1-c1cnccn1)CSC2)c1cccc2ccccc12 | 0.9 | 1.8 | IC50 [11]: 0.33 µM

Row | Compound | IC50 (Autotaxin [1]) [µM] | IC50 (Autotaxin [10]) [µM] | further results
19 | O=C(O)c1ccc(-n2nc3c(c2NC(=O)c2cccc4ccccc24)CSC3)cc1 | – | 48.3 | –
20 | COC(=O)c1ccc(-n2nc3c(c2NC(=O)c2cccc4ccccc24)CSC3)cc1 | – | > 100 | –
21 | O=C(Cc1ccc(F)cc1)Nc1c2c(nn1-c1ccc(Br)cc1)CSC2 | 7.6 | – | –
22 | O=C(Nc1c2c(nn1-c1ccc(C(F)(F)F)cc1)CSC2)c1cccc2ccccc12 | – | 46.6 | –
23 | O=C(CCN1CCN(C(=O)OCc2cc(Cl)cc(Cl)c2)CC1)c1ccc2[nH]c(=O)oc2c1 | – | – | solubility kinetic [2]: 1.22 µM (≈ 0.584 µg/mL); solubility kinetic [3]: 15.4 µM (≈ 7.35 µg/mL)
24 | CC(C)(C)n1nc2c(c1NC(=O)c1cccc3ccccc13)CSC2 | – | > 100 | –
25 | COc1ccc(-n2nc3c(c2NC(=O)c2cccc4ccccc24)CSC3)cc1 | > 100 | > 100 | –
26 | O=C(c1cc(Cl)cc(Cl)c1)N1CCN(c2c3c(nn2-c2ccc(Br)cc2)CSC3)CC1 | 70 | – | –
27 | Cc1cc(C(=O)Nc2c3c(nn2-c2ccc(Br)cc2)CSC3)ccc1F | 41.8 | – | –
28 | NS(=O)(=O)c1ccc(-n2nc3c(c2NC(=O)c2cccc4ccccc24)CSC3)cc1 | – | 79.8 | –
29 | O=C(CN1CCN(C(=O)c2cc(Cl)cc(Cl)c2)CC1)Nc1ccn(-c2ccc(Br)cc2)n1 | 25 | – | –
30 | O=C1S/C(=C\c2ccc(OCc3ccc(B(O)O)cc3)cc2)C(=O)N1Cc1ccc(F)cc1 | – | – | solubility kinetic [3]: 3.08 µM (≈ 1.43 µg/mL); solubility kinetic [4]: 1.05 µM (≈ 0.486 µg/mL)
31 | O=C(Nc1c2c(nn1-c1ccccc1)CSC2)c1cccc2ccccc12 | > 100 | > 100 | –
32 | CO[C@](C(=O)Nc1c2c(nn1-c1ccc(Br)cc1)CCC2)(c1ccccc1)C(F)(F)F | 24.4 | – | –
33 | O=C(Cc1ccc2ccccc2c1)Nc1c2c(nn1-c1ccc(Br)cc1)CSC2 | 21.2 | – | –
34 | O=C(Nc1c2c(nn1-c1ccc(Br)cc1)CCC2)c1cc(Cl)cc(Cl)c1 | 6.6 | – | –
35 | Autotaxin (Homo sapiens) (from UniProt Q13822) | – | – | Km [12]: 5.61 µM; Km [13]: 17.1 µM
36 | O=C(Nc1c2c(nn1-c1ccc(Br)cc1)CSC2)c1ccc(C(F)(F)F)cc1 | 37.3 | – | –
